Values quoted from earlier work, collected in patent US5434330A, “Process and apparatus for separation of constituents of gases using gas hydrates” (priority 1993, dated 1995).
Read-outs that look alike come from different tables or passages of the source.

Columns and labels:
[1] = in ethyl ether, 20° C.
[2] = for calculation at 253K
[3] = 25° C.

SMILES | Ostwald coefficient [1] | methane-methanol Henry's law constant ([2]; in methanol) | methane-water Henry's law constant ([2]; in water) | SOLUBILITY OF METHANE, HENRY'S CONSTANT H ([3]; in Acetone) | SOLUBILITY OF METHANE, HENRY'S CONSTANT H ([3]; in Ethanol) | SOLUBILITY OF METHANE, HENRY'S CONSTANT H ([3]; in Methanol) | SOLUBILITY OF METHANE, HENRY'S CONSTANT H ([3]; in Water) | nitrogen-methanol Henry's law constant ([2]; in methanol) | nitrogen-water Henry's law constant ([2]; in water)
C [methane] | 1028 | 824 atm | 10,193 atm | 533 atm | 770 atm | 1137 atm | 39,052 atm |  | 
N#N [nitrogen] |  |  |  |  |  |  |  | 3,632 atm | 27,987 atm
